According to patent US7671058B2, “N-(3,4-disubstituted phenyl) salicylamide derivatives” (Institute of Medicinal Molecular Design, Inc., priority 2006, dated 2010):

Columns and labels:
NF-κB = NF-κB inhibition test: pNFκB-Luc luciferase reporter in U2-OS cells stimulated with human TNF α; format: cell-based; details: human TNF α 10 ng/mL; for Inhibition Rate of NF-κB (%): compound 2 μM, 8 hours; for IC50: from inhibition rates at 1, 0.1, 0.01 and 0.001 μM, read-out: IC50 against activation of NF-κB
Procedure: (1) Transfection to U2-OS Cells and Inhibition Test of Activation
U2-OS cells were seeded at 2×10^4 cells/well in 96-well culture plate, and transfection was carried out using FuGENE 6 Transfection Reagent (Roche Diagnostics GmbH). The procedures of the transfection are shown below.
11 μg of reporter plasmid (pNFκB-Luc; Stratagene Corporation) and 1.1 μg of pCMV β (CLONTECH Laboratories, Inc.) were mixed in 1.1 mL of OPTI-MEM I medium (GIBCO BRL) (solution (A)).
[…] of FuGENE 6 Transfection Reagent was mixed in 1.1 mL of OPTI-MEM I medium (solution (B)).
(§1) The above solution (A) and solution (B) were mixed, let them stand for 15 minutes at room temperature, then, 8.8 mL of OPTI-MEM I medium was added and diluted.
To this transfection solution, U2-OS cell suspension (11 mL) in McCoy's 5A medium (GIBCO BRL) containing 10% Fetal Bovine Serum (FBS; GIBCO BRL) at […] was added and well mixed.
(§2) 0.2 mL of the above solution was dispensed into each well of 96-well culture plates, and incubated for 24 hours (37° C., 5% CO2).
After removal of 50 μL of medium from each well, 50 μL of McCoy's 5A medium (serum-free) containing compound of the present application was added to a final concentration of 0.01˜2 μM (0.001, 0.01, 0.1, 0.5, 1 or 2 μM), and the plates were incubated for 2 hours (37° C., 5% CO2).
10 μL of the McCoy's 5A medium (serum-free) containing human TNF α (PEPROTECH EC Ltd.) was added to each well to achieve a final concentration of 10 ng/mL, and incubated for 8 hours (37° C., 5% CO2).
(§3) Medium was completely removed and plates were preserved at −80° C. until measurements.
(§4) Cell lysates were prepared by adding 40 μL of Passive Lysis Buffer (Promega Corporation) to each well.
(§5) 10 μL of each lysate was transferred to 96-well white plates. 50 μL of PicaGene L.T.2.0 (TOYO INK MFG. CO., LTD.) was added to each well, then, luminescence was measured after leaving for 10 minutes at room temperature.
(§6) 10 μL of each lysate was transferred to 96-well black plates. 100 μL of Z Buffer (preparation method will be explained later) was added to each well, and fluorescence was measured immediately.
(§7) 10 μL of each lysate was transferred to 96-well clear plates. 200 μL of protein assay reagent prepared from the BCA Protein Assay Kit (Pierce Biotechnology, Inc.) was added to each well, and, absorbance was measured after incubation for 30 minutes at 37° C.
(§8) For measurements of luminescence, fluorescence, and absorbance, microplate reader GENios (TECAN G.M.B.H.) was used.
(3) Calculation of Inhibition Rate
Luminescence values that show the degree of activation by TNF α stimulation were normalized by β-gal values that show transfection efficiency. Using the normalized values, the following calculation was carried out using the luminescence values that increased by TNF α stimulation. Inhibition Rate(%)=[…] E: In the presence of the compound of the present application, increased luminescence values by TNF α stimulation C: Without the presence of the compound of the present application, increased luminescence values by TNF α, stimulation
The values of protein assay by BCA reagent were used for a simple assessment of cytotoxicity, and not used for the calculation of inhibition rates.
NF-κB Inhibition Rates are shown below. The values in parentheses in the table represent the concentration of the compound of the present application.
NF-κB inhibition rates where the concentrations of the compound of the present application were 1, 0.1, 0.01 and 0.001 μM were calculated, and the 50% inhibitory concentrations (IC50) of the compounds of the present application against activation of NF-κB were evaluated.

STAT6 = STAT6 inhibition test: (GLS)x8/pTA-Luc luciferase reporter in U2-OS cells stimulated with human IL-4; format: cell-based; details: human IL-4 40 ng/mL; for Inhibition Rate of STAT6 (%): compound 2 μM, 8 hours; for IC50: from inhibition rates at 1, 0.1, 0.01 and 0.001 μM, read-out: IC50 against activation of STAT6
From the text: (1) Construction of a STAT6 Reporter Plasmid
The Oligonucleotides (SEQ ID: 1, 2) containing two copies of STAT6 binding sequences (refer to J. Biol. Chem., vol. 276, No. 9, pp. 6675-6688 (2001).) were synthesized, and integrated into the enhancer region of the reporter plasmid pTA-Luc Vector (CLONTECH Laboratories, Inc.) at the restriction enzyme BgIII site.
When the oligonucleotide is integrated in positive direction into the plasmid, the upstream BglII site is not reconstructed. Therefore, STAT6 binding sequences can be increased by repeating integration of the oligonucleotide at the restriction enzyme BglII site.
In the present test, a plasmid including eight integrated STAT6 binding sequences was constructed and provided for the reporter assay as (GLS)x8/pTA-Luc. Confirmation of the sequences was carried out using an automated fluorescence sequencer (Model 310 (Applied Biosystems)).
(2) Transfection into U2-OS Cells and Inhibition Test for STAT6 Activation
U2-OS cells were seeded to at 2×10^4 cells/well in 96-well culture plates, and transfection was carried out using FuGENE 6 Transfection Reagent (Roche Diagnostics GmbH). The procedures of the transfection are shown below.
11 μg of reporter plasmid ((GLS)x8/pTA-Luc) and 1.1 μg of pCMV β (CLONTECH Laboratories, Inc.) were mixed in 1.1 mL of OPTI-MEM I medium (GIBCO BRL) (solution (A)).
33 μL of FuGENE 6 Transfection Reagent was mixed in 1.1 mL of OPTI-MEM I medium (solution (B)).
as §1
To this transfection solution, U2-OS cell suspension (11 mL) in McCoy's 5A medium (GIBCO BRL) containing 10% Fetal Bovine Serum (FBS; GIBCO BRL) at 2×10^5 cells/mL was added and well mixed.
as §2
After removal of 50 μL of medium from each well, 50 μL of McCoy's 5A medium (serum-free) containing compound, of the present application was added to a final concentration of 0.01˜2 μM (0.001, 0.01, 0.1, 0.5, 1 or 2 μM), and the plates were incubated for 2 hours (37° C., 5% CO2).
10 μL of the McCoy's 5A medium (serum-free) containing human IL-4 (R&D Systems, Inc) was added to each well to achieve a final concentration of 40 ng/mL, and incubated for 8 hours (37° C., 5% CO2).
as §3, §4, §5, §6, §7, §8
(4) Calculation of Inhibition Rate
Luminescence values that show the degree of activation by IL-4 stimulation were normalized by β-gal values that show transfection efficiency. Using the normalized values, the following calculations were carried out using the luminescence values increased by IL-4 stimulation. Inhibition Rate(%)=[…] E: In the presence of the compound of the present application, increased luminescence value by IL-4 stimulation C: Without the presence of the compound of the present application, increased luminescence value by IL-4 stimulation […]

SMILES | Inhibition Rate of NF-κB (%) (NF-κB) | IC50 (NF-κB) [µM] | Inhibition Rate of STAT6 (%) (STAT6) | IC50 (STAT6) [µM]
O=C(Nc1ccc(OC2CCNCC2)c(F)c1)c1cc(Cl)ccc1O [compound 31] | 92 (2 μM) % | 0.0122 | 93 (2 μM) % | 0.00637
CN1CCN(c2ccc(NC(=O)c3ccc(Cl)cc3O)cc2F)CC1.Cl [compound 61] | 80 (2 μM) % | – | 86 (2 μM) % | –
Cc1cc(NC(=O)c2cc(Cl)ccc2O)ccc1OC1CCN(C)CC1 [compound 25] | 60 (2 μM) % | – | 80 (2 μM) % | –
CCN1CCCN(c2ccc(NC(=O)c3cc(Cl)ccc3O)cc2F)CC1 [compound 53] | 45 (2 μM) % | – | 57 (2 μM) % | –
O=C(Nc1ccc(N2CCCNCC2)c(F)c1)c1cc(Br)ccc1O [compound 87] | 93 (2 μM) % | 0.0117 | 91 (2 μM) % | 0.0183
NC(=O)C1CCCN(c2ccc(NC(=O)c3cc(Cl)ccc3O)cc2F)C1 (stereo not drawn) [compound 48] | 40 (2 μM) % | – | 42 (2 μM) % | –
CN1CCCN(c2ccc(NC(=O)c3cc(Cl)ccc3O)cc2F)CC1 [compound 34] | 95 (2 μM) % | 0.00704 | 94 (2 μM) % | 0.00322
CN1CCCN(c2ccc(NC(=O)c3ccc(Cl)cc3O)cc2F)CC1 [compound 77] | 89 (2 μM) % | 0.00844 | 90 (2 μM) % | 0.00729
Cc1cc(NC(=O)c2cc(Cl)ccc2O)ccc1N1CCN(C)CC1.Cl [compound 18] | 67 (2 μM) % | 0.147 | 79 (2 μM) % | 0.0919
CN1CCN(c2ccc(NC(=O)c3cc(C#N)ccc3O)cc2F)CC1.Cl [compound 90] | 18 (2 μM) % | – | 11 (2 μM) % | –
O=C(Nc1ccc(N2CCCNCC2)c(F)c1)c1cc(Cl)ccc1O [compound 44] | 94 (2 μM) % | 0.0157 | 94 (2 μM) % | 0.00751
CN1CCN(c2ccc(NC(=O)c3cc(C(F)(F)F)ccc3O)cc2F)CC1.Cl [compound 62] | 89 (2 μM) % | – | 96 (2 μM) % | –
O=C(Nc1ccc(N2CCC(O)CC2)c(F)c1)c1cc(Cl)ccc1O [compound 43] | 32 (2 μM) % | – | 46 (2 μM) % | –
Cl.O=C(Nc1ccc(N2CCCNCC2)c(Cl)c1)c1cc(Cl)ccc1O [compound 81] | 90 (2 μM) % | 0.0178 | 92 (2 μM) % | 0.0109
O=C(Nc1ccc(N2CCOCC2)c(C(F)(F)F)c1)c1cc(Cl)ccc1O [compound 3] | 30 (2 μM) % | – | 67 (2 μM) % | –
CN1CCC(COc2ccc(NC(=O)c3cc(Cl)ccc3O)cc2F)CC1 [compound 51] | 86 (2 μM) % | 0.0179 | 83 (2 μM) % | 0.009
CC1CN(c2ccc(NC(=O)c3cc(Cl)ccc3O)cc2F)C(C)CN1.Cl.Cl (stereo not drawn) [compound 85] | 79 (2 μM) % | – | 72 (2 μM) % | –
O=C(Nc1ccc(N2CCN(C(=O)CCN3CCCCC3)CC2)c(F)c1)c1cc(Cl)ccc1O [compound 35] | 24 (2 μM) % | – | 26 (2 μM) % | –
Cl.O=C(Nc1ccc(OCC2CCNCC2)c(F)c1)c1cc(Cl)ccc1O [compound 45] | 68 (2 μM) % | – | 76 (2 μM) % | –
CN1CCN(c2ccc(NC(=O)c3cc(Cl)ccc3O)cc2F)CC1 [compound 12] | 91 (2 μM) % | 0.0252 | 94 (2 μM) % | 0.015
Cl.O=C(Nc1ccc(N2CCC(N3CCCC3)CC2)c(F)c1)c1cc(Cl)ccc1O [compound 15] | 53 (2 μM) % | – | 59 (2 μM) % | –
